# Assay results reported in article PMC3961306, “Comparison of the Cancer Gene Targeting and Biochemical Selectivities of All Targeted Kinase Inhibitors Approved for Clinical Use” (PLoS ONE, 2014).
# Columns and labels:
# [1] = biological target: panel of more than 300 wild-type and mutant kinases (313 kinase panel) (Homo sapiens, UniProt P22612); experiment: Kinase profiling in a biochemical assay panel (mobility shift assays and ELISA), %-inhibition at 1 μM; selectivity entropy; conditions: kinase PKACγ; 1 μM
# [2] = biological target: panel of more than 300 wild-type and mutant kinases (313 kinase panel) (Homo sapiens, UniProt P00533, L861Q); experiment: as above; conditions: kinase EGFR(L861Q); compound at 1 μM
# Chain of panel of more than 300 wild-type and mutant kinases (313 kinase panel) (Homo sapiens, UniProt P00533, L861Q) (P00533 25-1210 L861Q): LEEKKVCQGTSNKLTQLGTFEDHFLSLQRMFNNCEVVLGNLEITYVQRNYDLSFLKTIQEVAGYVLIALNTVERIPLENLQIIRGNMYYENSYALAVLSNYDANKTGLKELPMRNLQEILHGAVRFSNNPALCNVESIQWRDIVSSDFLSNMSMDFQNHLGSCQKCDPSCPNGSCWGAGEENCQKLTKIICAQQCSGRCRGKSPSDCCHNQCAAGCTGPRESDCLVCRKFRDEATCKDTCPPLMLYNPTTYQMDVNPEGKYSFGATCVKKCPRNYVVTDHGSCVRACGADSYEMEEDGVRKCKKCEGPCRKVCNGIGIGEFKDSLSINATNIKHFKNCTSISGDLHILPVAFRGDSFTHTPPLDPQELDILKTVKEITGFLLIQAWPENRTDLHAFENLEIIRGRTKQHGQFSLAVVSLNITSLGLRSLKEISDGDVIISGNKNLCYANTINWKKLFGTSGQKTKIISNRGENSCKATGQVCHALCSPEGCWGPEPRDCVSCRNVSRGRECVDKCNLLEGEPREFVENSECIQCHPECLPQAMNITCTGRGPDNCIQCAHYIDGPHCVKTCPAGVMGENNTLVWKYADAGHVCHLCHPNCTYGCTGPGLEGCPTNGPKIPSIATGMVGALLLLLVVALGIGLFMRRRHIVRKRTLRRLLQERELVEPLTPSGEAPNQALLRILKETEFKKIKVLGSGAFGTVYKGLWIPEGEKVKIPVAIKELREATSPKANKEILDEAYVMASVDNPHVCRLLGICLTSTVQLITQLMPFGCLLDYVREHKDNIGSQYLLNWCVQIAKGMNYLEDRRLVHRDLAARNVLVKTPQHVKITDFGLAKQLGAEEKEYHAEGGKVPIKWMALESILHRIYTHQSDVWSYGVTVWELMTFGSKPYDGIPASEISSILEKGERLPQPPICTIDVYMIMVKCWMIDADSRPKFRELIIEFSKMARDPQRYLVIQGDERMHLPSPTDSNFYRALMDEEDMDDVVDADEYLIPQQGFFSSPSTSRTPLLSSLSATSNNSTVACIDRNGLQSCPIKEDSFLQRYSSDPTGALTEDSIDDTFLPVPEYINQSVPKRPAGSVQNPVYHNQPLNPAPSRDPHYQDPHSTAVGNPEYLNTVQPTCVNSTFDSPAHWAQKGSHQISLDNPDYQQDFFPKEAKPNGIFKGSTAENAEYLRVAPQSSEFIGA
# [3] = system: mutant versus wild-type cell lines of the 44 cell line panel; experiment: Anova analysis of cell panel IC50s against cancer gene changes; standardized mean difference (targetedness); conditions: BRAF oncogene targeting, Figure 5D
# [4] = biological target: panel of more than 300 wild-type and mutant kinases (313 kinase panel) (Homo sapiens, UniProt O75914); experiment: Kinase profiling in a biochemical assay panel (mobility shift assays and ELISA), %-inhibition at 1 μM; selectivity entropy; conditions: kinase PAK3; 1 μM
# Chain of panel of more than 300 wild-type and mutant kinases (313 kinase panel) (Homo sapiens, UniProt O75914) (O75914 whole entry, change not shown): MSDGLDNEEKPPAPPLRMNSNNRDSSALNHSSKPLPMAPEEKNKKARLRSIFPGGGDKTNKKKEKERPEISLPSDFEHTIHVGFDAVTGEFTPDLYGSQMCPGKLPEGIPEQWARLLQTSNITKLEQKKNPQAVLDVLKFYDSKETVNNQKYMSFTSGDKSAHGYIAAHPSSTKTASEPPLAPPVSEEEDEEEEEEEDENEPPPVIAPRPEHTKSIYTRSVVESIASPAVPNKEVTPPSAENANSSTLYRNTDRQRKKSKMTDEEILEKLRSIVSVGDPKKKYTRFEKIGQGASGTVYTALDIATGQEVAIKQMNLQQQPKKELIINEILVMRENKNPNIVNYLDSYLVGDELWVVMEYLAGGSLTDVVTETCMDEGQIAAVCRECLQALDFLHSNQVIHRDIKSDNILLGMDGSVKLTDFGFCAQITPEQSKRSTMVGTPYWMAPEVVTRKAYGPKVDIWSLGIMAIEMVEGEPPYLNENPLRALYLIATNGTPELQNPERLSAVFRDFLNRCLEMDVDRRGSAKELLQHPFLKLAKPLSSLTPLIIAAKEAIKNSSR
# [5] = biological target: T1, panel of more than 300 wild-type and mutant kinases (313 kinase panel) (Homo sapiens, UniProt O00444); experiment: as above
# T1 sequence (O00444 1-970): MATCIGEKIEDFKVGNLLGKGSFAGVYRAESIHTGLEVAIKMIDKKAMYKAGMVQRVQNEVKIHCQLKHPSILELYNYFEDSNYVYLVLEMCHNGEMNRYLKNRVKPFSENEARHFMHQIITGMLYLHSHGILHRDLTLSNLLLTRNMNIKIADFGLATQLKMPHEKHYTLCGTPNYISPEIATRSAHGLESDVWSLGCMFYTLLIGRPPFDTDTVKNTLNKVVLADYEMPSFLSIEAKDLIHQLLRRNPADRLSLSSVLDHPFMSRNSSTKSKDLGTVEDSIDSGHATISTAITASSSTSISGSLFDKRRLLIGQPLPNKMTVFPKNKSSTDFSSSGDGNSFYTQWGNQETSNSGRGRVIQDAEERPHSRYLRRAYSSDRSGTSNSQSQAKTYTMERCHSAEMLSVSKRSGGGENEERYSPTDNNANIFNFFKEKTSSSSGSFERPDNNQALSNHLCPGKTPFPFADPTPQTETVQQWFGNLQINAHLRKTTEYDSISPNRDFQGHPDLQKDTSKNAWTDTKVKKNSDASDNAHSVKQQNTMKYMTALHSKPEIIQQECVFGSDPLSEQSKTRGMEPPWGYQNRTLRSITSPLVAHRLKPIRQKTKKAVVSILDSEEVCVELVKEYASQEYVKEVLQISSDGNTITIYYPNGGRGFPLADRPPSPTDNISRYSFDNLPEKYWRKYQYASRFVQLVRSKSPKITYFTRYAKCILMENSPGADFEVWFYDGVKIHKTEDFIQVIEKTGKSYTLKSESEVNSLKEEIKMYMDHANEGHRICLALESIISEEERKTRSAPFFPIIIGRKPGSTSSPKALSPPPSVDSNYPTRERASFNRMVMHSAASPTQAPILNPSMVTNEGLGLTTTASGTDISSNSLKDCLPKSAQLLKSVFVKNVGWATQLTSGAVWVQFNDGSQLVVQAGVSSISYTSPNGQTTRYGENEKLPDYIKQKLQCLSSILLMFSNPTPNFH
# [6] = biological target: T2, panel of more than 300 wild-type and mutant kinases (313 kinase panel) (Homo sapiens, UniProt P42679); experiment: as above
# T2 sequence (P42679 1-507): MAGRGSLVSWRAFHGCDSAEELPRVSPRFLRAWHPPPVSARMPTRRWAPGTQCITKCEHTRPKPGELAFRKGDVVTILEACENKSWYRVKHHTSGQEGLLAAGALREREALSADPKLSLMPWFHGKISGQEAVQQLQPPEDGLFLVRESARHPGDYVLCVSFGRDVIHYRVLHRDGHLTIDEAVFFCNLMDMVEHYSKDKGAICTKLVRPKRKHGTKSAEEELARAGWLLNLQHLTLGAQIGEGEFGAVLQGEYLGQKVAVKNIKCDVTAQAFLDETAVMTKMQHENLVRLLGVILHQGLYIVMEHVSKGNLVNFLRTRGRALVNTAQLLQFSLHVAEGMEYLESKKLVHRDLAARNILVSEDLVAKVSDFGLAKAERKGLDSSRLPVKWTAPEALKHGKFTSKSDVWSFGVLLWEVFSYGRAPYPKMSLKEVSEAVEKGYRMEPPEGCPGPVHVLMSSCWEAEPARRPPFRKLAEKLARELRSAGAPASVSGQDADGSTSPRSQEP
# [7] = system: FKBP12; conditions: value indicates binding interaction with FKBP12; read-out: IC50 (nM) on relevant targets: mTOR; cited from earlier work
# [8] = biological target: panel of more than 300 wild-type and mutant kinases (313 kinase panel) (Homo sapiens, UniProt P00519, T315I); experiment: Kinase profiling in a biochemical assay panel (mobility shift assays and ELISA), %-inhibition at 1 μM; selectivity entropy
# [9] = kinase ABL(T315I), 1 μM compound
smiles,measurement,setting,value
COc1cc(Nc2c(C#N)cnc3cc(OCCCN4CCN(C)CC4)c(OC)cc23)c(Cl)cc1Cl [bosutinib],%-inhibition of PKACγ,[1],53%
COc1cc2nccc(Oc3ccc(NC(=O)C4(C(=O)Nc5ccc(F)cc5)CC4)cc3)c2cc1OC [cabozantinib],%-inhibition of EGFR(L861Q),[2],46%
same,%-inhibition of PKACγ,[1],-2.59%
C[C@@H](Oc1cc(-c2cnn(C3CCNCC3)c2)cnc1N)c1c(Cl)ccc(F)c1Cl [crizotinib],%-inhibition of PKACγ,[1],-6.52%
CC(C)(C)c1nc(-c2cccc(NS(=O)(=O)c3c(F)cccc3F)c2F)c(-c2ccnc(N)n2)s1 [dabrafenib],targetedness (standardized logIC50 difference),[3],-4.96
Cc1nc(Nc2ncc(C(=O)Nc3c(C)cccc3Cl)s2)cc(N2CCN(CCO)CC2)n1 [dasatinib],%-inhibition of PAK3,[4],-1.28%
C#Cc1cccc(Nc2ncnc3cc(OCCOC)c(OCCOC)cc23)c1 [erlotinib],%-inhibition of PLK4,[5]; 1 µM,9%
same,%-inhibition of CTK,[6]; 1 µM,22%
CO[C@H]1C[C@@H]2CC[C@@H](C)[C@@](O)(O2)C(=O)C(=O)N2CCCC[C@H]2C(=O)O[C@H]([C@H](C)C[C@@H]2CC[C@@H](OCCO)[C@H](OC)C2)CC(=O)[C@H](C)/C=C(\C)[C@@H](O)[C@@H](OC)C(=O)[C@H](C)C[C@H](C)/C=C/C=C/C=C/1C [everolimus],IC50,[7],~2 nM
same,%-inhibition of PKACγ,[1],-7.41%
O=S(=O)(c1cccc2cnccc12)N1CCCNCC1 [fasudil],"%-inhibition, ABL(T315I)",[8]; [9],1.7%
CS(=O)(=O)CCNCc1ccc(-c2ccc3ncnc(Nc4ccc(OCc5cccc(F)c5)c(Cl)c4)c3c2)o1 [lapatinib],%-inhibition of PLK4,[5]; 1 µM,-4.47%
same,%-inhibition of PAK3,[4],4.27%
same,"%-inhibition, ABL(T315I)",[8]; [9],9%
same,%-inhibition of CTK,"[6]; kinase CTK, compound at 1 μM",-0.699%
Cc1cn(-c2cc(NC(=O)c3ccc(C)c(Nc4nccc(-c5cccnc5)n4)c3)cc(C(F)(F)F)c2)cn1 [nilotinib],%-inhibition of PLK4,"[5]; kinase PLK4, 1 μM",21%
same,%-inhibition of PAK3,[4],-4%
same,%-inhibition of EGFR(L861Q),[2],11%
same,%-inhibition of CTK,[6]; 1 µM,7%
Cc1ccc(Nc2nccc(N(C)c3ccc4c(C)n(C)nc4c3)n2)cc1S(N)(=O)=O [pazopanib],%-inhibition of PLK4,"[5]; kinase PLK4, 1 μM",72%
same,%-inhibition of PAK3,[4],6%
same,%-inhibition of EGFR(L861Q),[2],13%
same,%-inhibition of CTK,"[6]; kinase CTK, compound at 1 μM",4.69%
CNC(=O)c1cc(Oc2ccc(NC(=O)Nc3ccc(Cl)c(C(F)(F)F)c3)c(F)c2)ccn1 [regorafenib],"%-inhibition, ABL(T315I)",[8]; [9],66%
same,%-inhibition of EGFR(L861Q),[2],6%
same,%-inhibition of PKACγ,[1],-0.823%
N#CC[C@H](C1CCCC1)n1cc(-c2ncnc3[nH]ccc23)cn1 [ruxolitinib],"%-inhibition, ABL(T315I)",[8]; 1 µM,4%
same,%-inhibition of EGFR(L861Q),[2],-3.22%
same,%-inhibition of PKACγ,[1],11%
CCN(CC)CCNC(=O)c1c(C)[nH]c(/C=C2\C(=O)Nc3ccc(F)cc32)c1C [sunitinib],%-inhibition of PLK4,"[5]; kinase PLK4, 1 μM",58%
same,%-inhibition of CTK,"[6]; kinase CTK, compound at 1 μM",28%
CO[C@H]1C[C@@H]2CC[C@@H](C)[C@@](O)(O2)C(=O)C(=O)N2CCCC[C@H]2C(=O)O[C@H]([C@H](C)C[C@@H]2CC[C@@H](OC(=O)C(C)(CO)CO)[C@H](OC)C2)CC(=O)[C@H](C)/C=C(\C)[C@@H](O)[C@@H](OC)C(=O)[C@H](C)C[C@H](C)/C=C/C=C/C=C/1C [temsirolimus],IC50,[7],~2 nM
same,%-inhibition of PKACγ,[1],-6%
CC(=O)Nc1cccc(-n2c(=O)n(C3CC3)c(=O)c3c(Nc4ccc(I)cc4F)n(C)c(=O)c(C)c32)c1 [trametinib],%-inhibition of PKACγ,[1],2%
COc1cc2c(Nc3ccc(Br)cc3F)ncnc2cc1OCC1CCN(C)CC1 [vandetanib],%-inhibition of PKACγ,[1],6%
CCCS(=O)(=O)Nc1ccc(F)c(C(=O)c2c[nH]c3ncc(-c4ccc(Cl)cc4)cc23)c1F [vemurafenib],"%-inhibition, ABL(T315I)",[8]; [9],7%
same,%-inhibition of EGFR(L861Q),[2],5%
same,%-inhibition of PKACγ,[1],-3%
